From publication doi:10.1101/2023.11.02.565282v1 (biorxiv, 2023)
Like-named read-outs stand apart in the source and are kept apart here.

Legend:
GluK2(VCQ)2a [1] = target: T1, GluK2(VCQ)2a (Rattus norvegicus, UniProt P42260, I567V/Y571C); test: calcium-sensitive fluorescence assay; type: cell-based
GluK2(VCQ)2a [2] = target: T1, GluK2(VCQ)2a; test: calcium-sensitive fluorescence assay; type: cell-based; settings: agonist; with 150 µM BPAM344; Fluo buffer pH 7.4

T1 sequence (P42260 32-908 I567V/Y571C): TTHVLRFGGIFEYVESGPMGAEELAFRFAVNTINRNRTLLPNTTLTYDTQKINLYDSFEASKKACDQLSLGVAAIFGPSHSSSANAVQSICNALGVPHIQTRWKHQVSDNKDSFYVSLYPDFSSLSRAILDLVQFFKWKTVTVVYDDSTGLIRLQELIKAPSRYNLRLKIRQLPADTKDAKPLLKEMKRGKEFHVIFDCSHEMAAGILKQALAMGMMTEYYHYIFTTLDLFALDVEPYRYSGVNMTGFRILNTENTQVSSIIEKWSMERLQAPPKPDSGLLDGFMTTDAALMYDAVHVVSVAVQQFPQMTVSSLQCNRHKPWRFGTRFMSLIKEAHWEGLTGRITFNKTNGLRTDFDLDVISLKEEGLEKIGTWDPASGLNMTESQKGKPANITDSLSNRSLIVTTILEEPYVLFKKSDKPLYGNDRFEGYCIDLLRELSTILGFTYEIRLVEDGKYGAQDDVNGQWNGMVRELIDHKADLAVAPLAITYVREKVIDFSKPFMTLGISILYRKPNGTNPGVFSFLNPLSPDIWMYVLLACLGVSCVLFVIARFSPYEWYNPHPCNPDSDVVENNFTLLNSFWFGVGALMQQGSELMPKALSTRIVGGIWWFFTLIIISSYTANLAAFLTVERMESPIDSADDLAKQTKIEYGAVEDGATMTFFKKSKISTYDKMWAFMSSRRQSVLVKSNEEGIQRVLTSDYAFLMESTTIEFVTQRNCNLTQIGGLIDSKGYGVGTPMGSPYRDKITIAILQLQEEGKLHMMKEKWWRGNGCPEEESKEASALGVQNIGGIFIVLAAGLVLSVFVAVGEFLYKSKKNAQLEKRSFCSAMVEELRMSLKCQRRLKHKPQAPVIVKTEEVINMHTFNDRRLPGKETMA

Compound	EC50 (GluK2(VCQ)2a [1]) [µM]	EC50 (GluK2(VCQ)2a [2]) [µM]
O=S1(=O)NCN(C2CC2)c2ccc(F)cc21 [BPAM344]	75.4	
C/C(=C/C=C/[C@@H](C)C(=O)O)[C@H]1CN[C@H](C(=O)O)[C@H]1CC(=O)O [domoate]		1.33
